A word on the solubility: it is the dissolved amount per volume that the medium holds.

Entries after “also recorded” stand apart in the source; their conditions may differ. Ends that are not written are not given here.

The source of these data is patent US8540999B2, “Allergenic proteins and peptides from Japanese cedar pollen” (Merck Patent GmbH, priority 1991, dated 2013).

Data set [1] can be described thus: Solubility, pH range protocol procedure. In kind it is physicochemical. The following applies: pH range pH6 to pH8. From the text:
(§1) Of the above group of modified peptides, several peptides have been identified as “unique” modified peptides. […] Certain modified peptides are characterized as “unique” due to the difficulties encountered when developing a modified peptide which meets all of the stringent requirements of a “unique” peptide defined herein. In many cases, multiple modifications of a parent peptide are attempted prior to identifying a modified derivitive peptide which meets all the characteristics of a “unique” modified peptide. Unique modified peptides are particularly useful as candidate peptides for formulating injectable multipeptide therapeutic formulations of the invention because “unique” modified peptides are soluble and stable in the same physiologically acceptable pH range as well as elicit the necessary T cell reactivity of a therapeutic peptide of the invention. “Unique” modified peptides of the invention include but are not limited to the following group of modified peptides: CJ1-24.5, CJ1-43.39, CJ1-43.50, CJ1-44.8, and CJ1-44.9 all as shown in FIGS. 20 and 44. Example 21 describes the development and identification of “unique” modified peptides of the invention.
(§2) Additional truncation of two C-terminal residues yielded 44.2 (SEQ ID NO: ). […] Thus, 44.2 (SEQ ID NO: ) was further modified by the addition of charged (hydrophilic residues) to the N-terminus and by replacement of the hydrophobic residue Val with the less hydrophobic residue Ala. […] CJI-44.8 (SEQ ID NO: 132) was stable and soluble at greater than 5 mg/ml over the pH range pH6-pH8 in an aqueous buffer.

Data set [2] in a line: Solubility, single pH point protocol procedure. The following applies: 100 mM sodium phosphate buffer without mannitol, constant agitation. In kind it is physicochemical. As to the method:
as §2

Data set [3] in a line: Stability in aqueous buffer. In kind it is physicochemical. As to conditions: pH6 to pH8.
Text: as §1, §2

Data set [4] can be described thus: Solubility testing of parent and truncated peptides (protocol not stated). The data set is classed as physicochemical.
Text: For example, the amino acid sequence of CJI-44.8 (SEQ ID NO: 132) was derived from the protein sequence of Cry j I by first identifying those regions of the parent protein with high T cell reactivity using the set of overlapping peptides 20-mers as discussed in Example 6, and shown in FIG. 13, which covered the entire sequence. […] Since these peptides were adjacent to each other in the native protein sequence and overlapped by 10 residues, peptide CJI-44 was synthesized to capture the total T cell reactivity of both peptides. CJI-44 (SEQ ID NO: 90) (FIG. 18) is a peptide 30-mer which contains all of the sequence present in the two 20-mers CJI-31 (SEQ ID NO: 54) and CJI-32 (SEQ ID NO: 56).
as §2

The subject of data set [5] is Arthus reaction. The following applies: Usui et al. (1990); cited from earlier work.
In data set [6] the test system is patients' plasma IgE. The experiment in a line: Direct binding assay of IgE to Cry j I, Cry j II and recombinant Cry j II (Example 18). Also noted: species or system human. On the procedure:
Costar assay plates were coated with Cry j I or Cry j II at 2 μg/mL or recombinant Cry j II preparation at 10 μg/mL (approximately 20% pure) in a volume of 50 μL overnight at 4° C. The coating antigens were removed and the wells were blocked with 0.5% gelatin, PVP (polyvinyl pyrolidine) 1 mg/mL in PBS, 200 μL/well for 2 hours at room temperature. The anti-Cry j I monoclonal antibody, 4B11, was serially diluted in PBS-Tween 20 starting at a 1:1000 dilution. The human plasma were serially diluted in PBS-Tween at a starting dilution of 1:2. For this set 23 plasma samples from patients symptomatic for Japanese cedar pollen allergy chosen for IgE binding analysis. The first antibody incubation proceeded overnight at 4° C. Following three washes with PBS-Tween the second antibodies were added (biotinylated goat anti-mouse Ig or goat anti-human IgE both at 1:2000) and incubated for two hours at room temperature at 100 μL/well. After washing 3 times, […]. This solution was removed and streptavidin-HRPO diluted to 1:10,000, was added at 100 μL/well. The color was allowed to develop for 2-5 minutes. The reaction was stopped by the addition of 100 μL/well of 1M phosphoric acid. Plates were read on a Microplate IL310 Autoreader (Biotek Instruments, Winooski, Vt.) with a 450 nm filter. The absorbance levels of duplicate wells were averaged. A positive binding result, indicated by a plus sign is determined to be a reading of two-fold or greater above background (no first antibody) at the second dilution of plasma ([…]).

In data set [7] the test system is Cry j II reactive T cells. The experiment in a line: T cell proliferation assay, Cry j II primed T cell lines (Example 19). In kind it is cell-based, human. On the procedure: Long term T cell lines were established by stimulation of 2×10^6 PBL/ml in bulk cultures of complete medium (RPMI-1640, 2 mM L-glutamine, 100 U/ml penicillin/streptomycin, 5×10^−5M 2-mercaptoethanol, and 10 mM HEPES supplemented with 5% heat inactivated human AB serum) with 10 μg/ml of partially purified native Cry j II for 7 days at 37° C. in a humidified 5% CO2 incubator to select for Cry j II reactive T cells. This amount of priming antigen was determined to be optimal for the activation of T cells from most Japanese cedar pollen Cry j II allergic patients. Viable cells were purified by LSM centrifugation and cultured in complete medium supplemented with 5 units recombinant human IL-2/ml and 5 units recombinant human IL-4/ml for up to three weeks until the cells no longer responded to lymphokines and were considered “rested”. The ability of the T cells to proliferate to peptides Cry j IIA (SEQ ID NO: 185) and Cry j IIB (SEQ ID NO: 186), recombinant Cry j II (rCry j II) (SEQ ID NO: 134), purified native Cry j II, was then assessed. For assay, 2×10^4 rested cells were restimulated in the presence of 2×10^4 autologous Epstein-Barr virus (EBV)-transformed B cells (prepared as described in Example 6) (gamma-irradiated with 25,000 RADS) with 2-50 ’g/ml of rCry j II (SEQ ID NO: 134), purified native Cry j II, peptides Cry j IIA (SEQ ID NO: 185) and Cry j IIB (SEQ ID NO: 186), positive control (PHA), negative control (Amb a I.1), in a volume of […] complete medium in duplicate or triplicate wells in 96-well round bottom plates for 2-4 days. […] Each well then received 1 μCi tritiated thymidine for 16-20 hours. The counts incorporated were collected onto glass fiber filter mats and processed for liquid scintillation counting. The maximum response in a titration of each peptide is expressed as the stimulation index (S.I.). The S.I. is the counts per minute (CPM) incorporated by cells in response to peptide, divided by the CPM incorporated by cells in medium only. A positivity index may be calculated by multiplying the mean S.I. (indicated above each bar in FIGS. 42 and 43) by the percentage of individuals responding to the peptide (indicated in parentheses above each bar in FIGS. 42 and 43). […]

Data set [8] has as its system IgE antibodies. The following applies: Sakaguchi (1990), cited from earlier work.
Setting [9] is: aqueous sodium phosphate buffer.

Regarding DEEGAYFVSSGKYEGGNIYTKKEAFNVE [CJ1-44.8], the solubility was more than 5000 µg/mL in data set [1] (setting [9]) and “very soluble” in data set [2]. For the same molecule, the stability result in data set [3] is listed as “stable”.

For “DEENGAYFVSSGKYEGGNIYTKKEAFNVE [CJ1-44.6]”, in data set [2], the solubility entry was “increased solubility”.

Consider DENGAYFVSSGKYEGGNIYTKKEAFNAE [CJ1-44.5], for which the solubility entry in data set [2] is “increased solubility”.

On to DKEPRARYGLVHVANNNYDPWTIEEE [CJ1-24.5], for which the solubility in data set [1] (setting [9]) was more than 5000 µg/mL. In data set [3], the stability result is listed as “stable”.

As for DVFYNGAYFVSSGKYEGGNIYTKKEAFNVE [CJ1-44], the solubility in data set [4] (protocol not stated, read-out: solubility) was less than 5000 µg/mL.

Take KSMKVTVAFNQARK [CJ1-43.50]: the solubility in data set [1] (aqueous buffer) is more than 5000 µg/mL. Further, the stability result in data set [3] is recorded as “stable”.

On to NGAYFVSSGKYEGGNIYTKKEAFN [CJ1-44.2], for which the solubility entry in data set [4] (truncated analogs of CJI-44) is given as “solubility was improved in these sequences it still did not reach the standard”.

In the case of NGAYFVSSGKYEGGNIYTKKEAFNVE [CJ1-44.1], the solubility result in data set [4] (truncated analogs of CJI-44) was “solubility was improved in these sequences it still did not reach the standard”.

B1: Sugi basic protein (i.e., Cry j I)-pullulan conjugate: Sugi basic protein covalently linked to pullulan, Usui et al. (1990) (conjugate, UniProt P18632 22-374, looked up)
Pectate lyase 1: DNPIDSCWRGDSNWAQNRMKLADCAVGFGSSTMGGKGGDLYTVTNSDDDPVNPAPGTLRYGATRDRPLWIIFSGNMNIKLKMPMYIAGYKTFDGRGAQVYIGNGGPCVFIKRVSNVIIHGLYLYGCSTSVLGNVLINESFGVEPVHPQDGDALTLRTATNIWIDHNSFSNSSDGLVDVTLTSTGVTISNNLFFNHHKVMLLGHDDAYSDDKSMKVTVAFNQFGPNCGQRMPRARYGLVHVANNNYDPWTIYAIGGSSNPTILSEGNSFTAPNESYKKQVTIRIGCKTSSSCSNWVWQSTQDVFYNGAYFVSSGKYEGGNIYTKKEAFNVENGNATPQLTKNAGVLTCSLSKRC
modifications: pullulan conjugate
On to B1, for which the “ability to elicit the Arthus reaction, relative to native Sugi basic protein” value in data set [5] is “about 1,000 times lower”.

B2: purified native Cry j II: second Japanese cedar pollen allergen, purified native protein (protein)
chain: RKVEHSRHDAINIFNVEKYGAVGDGKHDCTEAFSTAWQAACKNPSAMLLVPGSKKFVVNNLFFNGPCQPHFTFKVDGIIAAYQNPASWKNNRIWLQFAKLTGFTLMGKGVIDGQGKQWWAGQCKWVNGREICNDRDRPTAIKFDFSTGLIIQGLKLMNSPEFHLVFGNCEGVKIIGISITAPRDSPNTDGIDIFASKNFHLQKNTIGTGDDCVAIGTGSSNIVIEDLICGPGHGISIGSLGRENSRAEVSYVHVNGAKFIDTQNGLRIKTWQGGSGMASHIIYENVEMINSENPILINQFYCTSASACQNQRSAVQIQDVTYKNIRGTSATAAAIQLKCSDSMPCKDIKLSDISLKLTSGKIASCLNDNANGYFSGHVIPACKNLSPSAKRKESKSHKHPKTVMVENMRAYDKGNRTRILLGSRPPNCTNKCHGCSPCKAKLVIVHRIMPQEYYPQRWICSCHGKIYHP
For the molecule B2, in data set [6] (23 plasma samples, FIG. 40), the “frequency of IgE response” value was “less”. In addition, the “plasma IgE binding response” value is given as “very strong reactivity” in data set [6] (patient #1034) and “binds human IgE of some allergic patients; also recorded: lower overall response” in data set [6] (patient plasma samples, FIGS. 31-33). Besides, the “T cell proliferative response” value in data set [7] (9 patients, FIG. 43) is given as “react”; in data set [7] (n=6 patients, FIG. 42), “respond well”. Further, the “immunological cross-reactivity with Cry j I” value in data set [8] (Kawashima et al. (1992)) is reported as “no immunological cross-reactivity”. Besides, the “allergic patients with IgE that only reacted with this allergen” value in data set [8] is given as 14%.
